From the NIST ThermoML archive (doi:10.1021/acs.jced.7b00609)
Numbers after ± are expanded uncertainties.

Assay: wn = mass fraction of the nth substance listed
Conditions: 100 kPa, Liquid, Pycnometric method

| Structure (SMILES) | mass density (283.15 K, w1 = 0.0851) | mass density (293.15 K, w1 = 0.1354) | mass density (303.15 K, w1 = 0.21) | mass density (283.15 K, w1 = 0.1527) | mass density (293.15 K, w1 = 0.2052) | mass density (303.15 K, w1 = 0.2653) |
| --- | --- | --- | --- | --- | --- | --- |
| O=C1OC(=O)c2ccccc21 [isobenzofuran-1,3-dione] + C1COCCO1 | 1052.7 ± 14 kg/m3 | 1059.7 ± 14 kg/m3 | 1061.9 ± 14 kg/m3 |  |  |  |
| CC1=CC(=O)c2ccccc2C1=O [2-methyl-1,4-naphthalenedione] + C1COCCO1 |  |  |  | 1052.8 ± 14 kg/m3 | 1056.2 ± 14 kg/m3 | 1057.1 ± 14 kg/m3 |
